Results published in patent publication US8389551B2, “Optical enantiomers of phenyramidol and process for chiral synthesis” (Fermenta Biotech (UK) Limited, priority 2006, dated 2013).
Marks after values point to notes of the source that are not given here.

Tests used:
Assay type in all cases: in vivo
[1] = system: swiss albino mice; assay: Analgesic activity, acetic acid induced writhing method
Description: The objective of the study was to evaluate the analgesic activity of the tested formulations of the compounds of the present invention. The test was conducted in Swiss albino mice using acetic acid induced writhing method. A total of 78 pre-screened mice (showing writhing response within 10 minutes*) were divided into 6 groups of 13 animals (6 males+7 females) each. The animals showing no writhing response within 10 mins were excluded. Diclofenac and pentazocine were used as positive controls. The formulations were given orally to the different groups of animals and the number of writhes counted for a period of 15 minutes, after the onset of writhes. If the onset of writhes occurred 30 after 10 minutes the number of writhes was recorded as V. The time of onset of writhes was recorded for each animal.
The control group received 1% gum acacia. The Groups 2, 3, and 4 received the formulations viz: Phen 2; Phen 3 and Phen 4 respectively. Diclofenac and pentazocine were used as positive control and given to groups 5 and 6 respectively. Diclofenac, a potent analgesic & anti-inflammatory agent; and 5 pentazocine an opoid analgesic were selected for comparative evaluation of test formulations. Both these drugs were administered to different groups of animals at the dose of 2 mg/kg. The group 1 (Phen 1) served as—Ve Control group in the study. Phen 5 (Diclofenac—2 mg/kg) and Positive Control: Phen 6 (Pentazocine 2 mg/kg) served as positive controls.
Human daily dose of 2400 mg (800 mg×3 times) was extrapolated to mice for Phen3 and human daily dose of 1200 mg (400 mg×3 times) was extrapolated to mice for Phen2 and Phen 4. The numbers of writhes observed are given below in Table 4 for each formulation.
Further, the evaluation of analgesic activity was carried out using variable dosage forms with different groups. A total of 100 animals (50 males+50 females) were selected randomly and distributed into ten main groups with 10 animals per group (5 M+5 F). Human daily dose of 2400 mg (800 mg×3 times) was extrapolated to mice for Phen 3 (Phenyramidol Racemic (Hydrochloride) and human daily dose of 1200 mg (400 mg×3 times), 1800 mg (400 mg×4.5 times), 2000 mg (400 mg×5 times) & 2400 mg (400 mg×6 times) was extrapolated to mice for Phen2 and Phen4 groups.
The control group 1 received 1% gum acacia and served as negative control group. Groups 2, 3, 4 & 5 received the formulation Phen2. Groups 6, 7, 8 & 9 received the formulation Phen 4 (Isomer 2) & Group 10 received the formulation Phen 3 (Racemic).
Further, one more experiment was done with phenyramidol hydrochloride to evaluate the analgesic activity at lesser dosage levels using acetic acid induced method. A total of 50 animals (25 males+25 females) were selected and randomly distributed into five main groups with 10 animals per group (5 M+5 F). 5 Human daily dose of 600 mg (400×1.5 times) & 1200 mg (800 mg×1.5 times) was extrapolated to mice for Phen 3 (Racemic) and human daily dose of 600 mg (400 mg×1.5 times) was extrapolated to mice for (−) Phenyramidol Hydrochloride & (+) Phenyramidol Hydrochloride and the results are discussed in Table 6.

[2] = system: rats; assay: Anti-arthritic activity, thickness of joint of right paw after injection of formalin; settings: for Thickness of Joint (in cm) 0 hr: 0 hr (initial); for Thickness of Joint (in cm) 0 hr / Thickness of Joint (in cm) 2 hr: Phen 3 2400 mg, Phen 2 and Phen 4 1200 mg human daily dose extrapolated to rats, Diclofenac sodium 2 mg/Kg; for Thickness of Joint (in cm) 2 hr: 2 hr after formalin; for Thickness of Joint (in cm) 4 hr: 4 hr after formalin; for Thickness of Joint (in cm) 4 hr / Thickness of Joint (in cm) 8 hr / Thickness of Joint (in cm) 24 hr / Thickness of Joint (in cm) 48 hr / Thickness of Joint (in cm) 72 hr: doses as E38; for Thickness of Joint (in cm) 8 hr: 8 hr after formalin; for Thickness of Joint (in cm) 24 hr: 24 hr after formalin; for Thickness of Joint (in cm) 48 hr: 48 hr after formalin; for Thickness of Joint (in cm) 72 hr: 72 hr after formalin
Description: The anti-arthritic activity was assessed using following time points after the injection of formalin 2 hrs, 4 hrs, 8 hrs, 24 hrs, 48 hrs and 72 hrs. The control group (group 1) received 1% gum acacia. The Groups 2, 3, and 4 received the formulations viz: Phen 2, Phen 3 and Phen 4 respectively. Diclofenac was used as positive control and given to group 5. Human daily dose of 2400 mg (800 mg×3 times) was extrapolated to rats for 5 (racemate) Phen 3 and human daily dose of 1200 mg (400 mg×3 times) was extrapolated to rats for (isomer 1) Phen 2 and (isomer 2) Phen 4. Diclofenac sodium 2 mg/Kg was used as reference product.
Initial or 0 hr thickness of the joint of right paw of each animal was recorded. The thickness of the joint was measured using Vernier calipers at different time intervals after the injection of formalin. These efficacy variables were assessed at six time points 2 hrs, 4 hrs, 8 hrs, 24 hrs, 48 hrs and 72 hrs for each and every animal.

[3] = system: mice; assay: Central analgesic activity, tail flick analgesiometer; settings: for Tail Flick Reaction Time (Sec.) 1 hr.: 1 hr. after dose; for Tail Flick Reaction Time (Sec.) 1 hr. / Tail Flick Reaction Time (Sec.) 4 hr.: human daily dose 2400 mg or 1200 mg extrapolated to mice, cut-off 10-12 seconds; for Tail Flick Reaction Time (Sec.) 4 hr.: 4 hr. after dose
[4] = system: Wistar rats; assay: Anti-inflammatory activity, carrageenin induced paw edema (plethysmometer); settings: for % Increase in Paw volume 1 HR: 1 HR after carrageenan, oral, racemate 2400 mg, isomers 1200 mg human daily dose extrapolated to rats, Indomethacin 15 mg/kg, diclofenac 10 mg/kg; for % Increase in Paw volume 2 HR: 2 HR after carrageenan; for % Increase in Paw volume 2 HR / % Increase in Paw volume 3 HR / % Increase in Paw volume 5 HR: doses as E46; for % Increase in Paw volume 3 HR: 3 HR after carrageenan; for % Increase in Paw volume 5 HR: 5 HR after carrageenan
Description: Further, the investigations were carried out to determine the anti-inflammatory activities of the molecule of the present invention. Wistar rats weighing between 160-210 gm were divided into 6 groups of 10 animals each. Group I served as control (Placebo) and receive CMC and Group II & III received anti-inflammatory control (positive control) (Diclofenac & Indomethacin respectively). Group IV to VI were treated orally with test formulations. After 15 min. of drug administration, inflammation was induced by injecting 0.1 ml of freshly prepared 1% carrageenin (in normal saline) into the left hind paw of the rat. The paw volume of the […] was measured by measuring the displace fluid in other hand of plethysmometer.
Indomethacin (15 mg/kg and declofenac (10 mg/kg) was used as reference product. Percent increased in rat paw edema was measured and compare to normal control at each time intervals.
The antiinflammatory activity was assessed plethysmographically using following time points after the administration of carrageenan, 1 hr, 2 hrs, 3 hrs and 5 hrs.

[5] = Table 4, oral, writhes counted 15 minutes, Phen3 human daily dose 2400 mg, Phen2 and Phen 4 1200 mg extrapolated to mice, Diclofenac and Pentazocine 2 mg/kg
[6] = Table 6, dose 600 mg (human daily dose extrapolated to mice), mean ± SD, n = 10
[7] = experiment of Table 6, lesser dosage levels

| Structure (SMILES) | Average no. of writhes [1, 5] | Average no. of writhes [1, 6] | analgesic activity by decrease in the number of writhes induced by acetic acid [1, 7] | Thickness of Joint (in cm) 0 hr [2] | Thickness of Joint (in cm) 2 hr [2] | Thickness of Joint (in cm) 4 hr [2] | Thickness of Joint (in cm) 8 hr [2] | Thickness of Joint (in cm) 24 hr [2] | Thickness of Joint (in cm) 48 hr [2] | Thickness of Joint (in cm) 72 hr [2] | Tail Flick Reaction Time (Sec.) 1 hr. [3] | Tail Flick Reaction Time (Sec.) 4 hr. [3] | % Increase in Paw volume 1 HR [4] | % Increase in Paw volume 2 HR [4] | % Increase in Paw volume 3 HR [4] | % Increase in Paw volume 5 HR [4] | other results |
| --- | --- | --- | --- | --- | --- | --- | --- | --- | --- | --- | --- | --- | --- | --- | --- | --- | --- |
| OC(CNc1ccccn1)c1ccccc1 (racemic) [Phen 3, 2-(β-hydroxyphenethylamino) pyridine, reference compound] | 3.54 ± 3.95* | 5.90 ± 6.14* | significant analgesic activity | 0.48 ± 0.04 cm | 0.59 ± 0.03 cm | 0.59 ± 0.04 cm | 0.62 ± 0.06 cm | 0.52 ± 0.05 cm | 0.54 ± 0.05 cm | 0.55 ± 0.05 cm | 4.86 ± 3.023 s | 5.055 ± 2.735 s | 24.15 ± 7.27% | 44.73 ± 6.56% | 61.40 ± 18.21% | 47.13 ± 19.14% | Average no. of writhes ([1]; Table 5, dose 2400 mg (human daily dose extrapolated to mice), mean ± SD, n = 10): 4.20 ± 3.77*; Average no. of writhes ([1]; Table 6, dose 1200 mg (human daily dose extrapolated to mice), mean ± SD, n = 10): 1.50 ± 2.59*; analgesic activity by decrease in the number of writhes induced by acetic acid ([1]; experiment of Table 4): significant analgesic activity; analgesic activity by decrease in the number of writhes induced by acetic acid ([1]; experiment of Table 5 (variable doses)): significant analgesic activity; analgesic activity (tail flick latency compared to control) ([3]; at 4 hr after dose administration): significant analgesic activity |
| Cl.O[C@@H](CNc1ccccn1)c1ccccc1 [(−) Phenyramidol Hydrochloride, (R)-Phenyramidol Hydrochloride Salt] | – | 3.20 ± 4.16* | significant analgesic activity | – | – | – | – | – | – | – | – | – | – | – | – | – | analgesic activity (summary statement) ([1]; confirmed by an acetic acid induced writhing method): enhanced analgesic activity |
| O=C(O)Cc1ccccc1Nc1c(Cl)cccc1Cl [Diclofenac, reference compound] | 4.08 ± 6.32* | – | – | 0.49 ± 0.04 cm | 0.56 ± 0.04 cm | 0.56 ± 0.04 cm | 0.62 ± 0.03 cm | 0.54 ± 0.05 cm | 0.53 ± 0.05 cm | 0.51 ± 0.03 cm | 3.41 ± 1.421 s | 2.48 ± 0.654 s | 15.77 ± 13.94% | 33.39 ± 7.35 % | 43.03 ± 15.41 % | 30.44 ± 9.52% | difference from normal control in thickness of the joint ([2]; at 2 hr, One Way ANOVA followed by Dunnett's Test): significant decrease in the thickness of the joint |
